# In patent US20250123282A1, “METHODS FOR EVALUATION AND TREATMENT OF TYROSINE KINASE INHIBITOR (TKI)-RESISTANT ACUTE MYELOID LEUKEMIA” (LOMA LINDA UNIVERSITY, priority 2021, published 2025):
# What was measured:
# primary AML BMMNC = experiment: Ex vivo combination treatment of primary AML BMMNC (FACS, imaging, qPCR); format: cell-based, human; conditions: 80 nM GILT
# Experimental: Whether targeting the MIF-CXCR2 signaling pathway would effectively treat AML blasts were investigated. First, the combination of GILT with ribosomal protein S19 (RPS19) on MV4-11 blasts was tested in vitro. RPS19, a MIF inhibitor, has been reported to suppress cisplatin-activated MIF-CD74-NFκB signaling pathway in acute kidney injury. […] The combination of 80 nM GILT with 50 uM SB225002, a CXCR2-inhibitor (CXCR2-I) on MV4-11 blasts in vitro were examined. […] The anti-leukemic effect of combining GILT with CXCR2-I on primary BMMNC ex vivo were examined. […] There may be alternative cytokine pathways compensating for the defect of MIF-CXCR2 pathways.
# The combination of 80 nM GILT and 50 uM BAY11-7821 (a NFκB-I) was tested as a novel therapeutic approach for AML.
# Next, the anti-leukemic effect of the combination was examined on primary BMMNC from refractory AML patients (Patient #7, Table 4).
# Human Samples. AML bone marrow (BM) mononuclear cells (BMMNC) (Patients #1-7, Table 4) were obtained from the City of Hope National Medical Center (COHNMC). All donor patients signed an informed consent form. Sample acquisition was approved by the Institutional Review Boards at the LLUMC and the COHNMC in accordance with an assurance filed with and approved by the Department of Health and Human Services, and it met all requirements of the Declaration of Helsinki.
# For MIF in vitro experiments, different doses of MIF were added to 1 ml of 1×10^6 MV4-11 cells or RAW264.7 cells for each experimental group in 24-well plates. Two days after the one dose treatment, cells were then collected for either analyses by FACS and qPCR. As combination agents to treat blasts in vitro or ex vivo, one dose of 80 nM GILT with one dose of different inhibitors were added to 1 ml of 1×10^6 MV4-11 cells or 1 ml of 0.5-1×10^6 primary AML BMMNC for each experimental group in 24-well plates. Dose-dependent experiments of CXCR2 inhibitor and NFκB inhibitor with or without 80 nM GILT were performed. […] Three days after the one dose treatment, cells were then collected for either analyses by FACS and qPCR.
# (§1) Flow Cytometry (FACS). Cells were harvested and examined for the expression of cell surface biomarkers (CD) and intracellular proteins by multichromatic FACS as previously described. About 1×10^4˜10^6 cells in 100 μl FACS buffer (PBS containing 1% FBS and 0.05% sodium azide) were stained with various fluorescence-conjugated antibodies specific for the desired cell surface proteins at 4° C. for 30 min. The surface-stained cells were then fixed and permeabilized using the appropriate reagents (e.g. the BD Pharmingen Cytofix/Cytoperm buffer) and stained with different fluorescence-conjugated antibodies specific for the desired intracellular proteins at 4° C. for 2 hours in the permeabilizing buffer (e.g. the BD Perm/Wash buffer). Concentrations of the Abs were used per the manufacturers' recommendations. Finally, the cells were washed twice in the permeabilizing buffer and twice in the FACS buffer before being analyzed on the BD FACSAria II. Data was analyzed using the FlowJo software (Tree Star Inc., Ashland, OR).
# RNA Isolation and Real-Time Polymerase Chain Reaction (qPCR) analysis. MV4-11 and MOLM-14 cells were cultured with the presence of TKI drugs for 72 hours or re-plated 28 days after the treatment of TKI drugs. Cells were isolated for RNA isolation and qPCR analysis as previously described. Total RNA was isolated using the RNeasy Micro Kit (Qiagen) according to the manufacturer's instruction. First-strand cDNA was synthesized using the SuperScript III Reverse Transcriptase (Invitrogen; Life Technologies). With an Applied Biosystems 7900HT Real-Time PCR machine, qPCR was performed and analyzed using known primers for the specific markers. The PCR conditions were 10 minutes at 95° C. followed by 40 cycles of 10 seconds at 95° C. and 15 seconds at 60° C. The relative expression level of a gene was determined using the ΔΔCt method and normalized to GAPDH.
# MV4-11 = experiment: GILT-based combinatory treatments for MV4-11 in vitro (synergy, relapse, FACS, imaging); format: cell-based, human
# Source text: FLT3, the most frequently mutated gene in AML patients, is often associated with poorer overall survival with an increased risk of relapse. However, the anti-leukemic effects of the latest FLT3 inhibitors as monotherapy or in combination with standard treatments are constrained by a short duration of response and a high rate of relapse. Accordingly, whether targeting the compensation pathways along with administration of FLT3 inhibitors, e.g., GILT, prevents relapse. A list of the in vitro trials of GILT in combination with inhibitors (commercially available) targeting new pathways on MV4-11 is provided in Table 1. […]
# as §1, with “Cells were harvested and examined for the expression of cell surface biomarkers (CD) and intracellular proteins by multichromatic FACS as previously described.” left out, “Concentrations of the Abs were used per the manufacturers' recommendations.” left out, “Data was analyzed using the FlowJo software (Tree Star Inc., Ashland, OR).” left out
# [1] = newly diagnosed AML, Patient #5, 50 uM BAY11-7821
# [2] = primary BMMNC ex vivo (Patient #2 and #3), 50 uM CXCR2-I
compound,measurement,setting,value
"CCc1nc(C(N)=O)c(Nc2ccc(N3CCC(N4CCN(C)CC4)CC3)c(OC)c2)nc1NC1CCOCC1 [GILT, Gilteritinib]",percentage of Ki67+CD33+ proliferating blasts,primary AML BMMNC; [1],73.3%
same,percentage of viable CD33+CD13+ primary blasts,primary AML BMMNC; [1],35.8%
same,percentage of Ki67+CD13+ blasts,primary AML BMMNC; [2],60%
same,percentage of viable CD33+CD13+ primary blasts,primary AML BMMNC; [2],7.14%
same,population of viable blasts (FACS),"MV4-11; MV4-11, 3 days after combination treatment",26.9%
same,viable Ki67+CD33+CD44+ cells (cell number count),"MV4-11; MV4-11, 7 days after combination treatment",180 cells
